# Experimental data from patent publication US20250288587A1, “Methods of Treating Fibrosis” (Athira Pharma, Inc., priority 2022, published 2025).
# How the values were obtained:
# Format in all cases: in vivo
# CFA-stimulated rats [1] = experiment: CFA inflammatory pain model, mechanical allodynia (von Frey test); parameters: key to Mechanical Allodynia, change in sensitivity compared to CFA alone / Mechanical Allodynia, significant reduction in pain behavior vs CFA alone: NS = no statistically significant change in sensitivity compared to CFA alone; + = statistically significant change in sensitivity compared to CFA alone, p < 0.05; settings: for study days on which sensitivity to mechanical stimulation was reduced: PO, post-dose testing, any tested dose; for PWT (paw withdrawal threshold) vs CFA+vehicle: data not shown
# Method: (§1) Response to peripheral inflammatory stimulus can be modeled by administering complete Freund's adjuvant (CFA), a suspension of desiccated mycobacterium in paraffin oil and mannide monooleate, by subcutaneous injection into the rat's footpad. The introduction of CFA to peripheral tissues leads to a rapid, sustained, inflammatory reaction in the treated tissue within 24 hours. Subcutaneous administration of CFA in the plantar region of the paw induces inflammatory pain behaviors that persist for at least 8 days. CFA treatment also leads to the accumulation of inflammatory cytokines in paw tissue at the site of injury, which, if unresolved, can lead to formation of fibrotic tissue. The extent of inflammatory response to CFA can be assessed by quantification of inflammatory cytokines in paw skin lysate, and inflammatory pain behaviors by mechanical allodynia (von Frey test) and thermal hyperalgesia (Hargreaves test).
# (§2) In one study, Compound 2a was tested for its ability to reduce inflammatory pain behaviors in the CFA inflammation model. On study day 0, […] of CFA was administered subcutaneously in the plantar of the right hind paw. Animals were treated daily with Compound 2a in solution via oral gavage (PO) at doses of 1, 0.1, and 0.025 mg/kg. Treatment began before CFA injection on study day −1 and continued through study day 8.
# Mechanical allodynia was measured using the von Frey test. In this test, rats were placed on a wire mesh and a series of filaments designed to deliver probing force ranging from 4 to 26 grams were applied to the mid-plantar surface of the right hind paw. Animals indicated pain response by lifting the probed paw. The minimal force required to elicit the withdrawal response was recorded as the paw withdrawal threshold (PWT). Von Frey testing was performed 1 hour after Compound 2a dosing on study day 1, 3, and 7, and was also tested pre-dosing on day 7. Statistical analysis was performed using a 1-way ANOVA with Tukey post-test. A p-value below 0.05 was considered statistically significant. Control animals stimulated with CFA but treated with only vehicle had high sensitivity to mechanical stimulation compared to normal control animals.
# (§3) In another study, Compounds 1a, 5a, and 6a were similarly tested against CFA-induced inflammatory stimulation in the right hind foot for their ability to reduce pain behaviors. This study also included quantification of inflammatory cytokine expression in paw skin lysate. Inflammatory pain stimulation with CFA injection and assessment of mechanical and thermal pain behaviors were performed as described above, with the exception that only post-dose pain behavior testing is reported.
# (§4) Intraplantar CFA injection occurred at day 0. Treatment with Compounds 1a, 5a, and 6a occurred at days −2, 1, 3, and 7. At day 8, the rats were terminated and cytokine levels were measured in paw skin and plasma. Tissue from paw bone, joint, and muscle were obtained for H&E staining and analysis. Cytokine levels in test compound-treated animals were compared to CFA-stimulated animals. Analytes included interleukin 4 (IL-4), tumor necrosis factor alpha (TNF-α) and interferon gamma (IFN-γ). Statistical analysis consisted of 1-way ANOVA followed by Dunnett's multiple comparisons post-test. Mechanical allodynia and thermal hyperalgesia were tested 1 hour post-dosing on days 1, 3, and 7. PWT refers to […] paw withdrawal threshold where a higher value corresponds to a higher pain threshold. PWL refers to […] paw withdrawal latency where a higher value corresponds to a higher pain threshold.
# CFA-stimulated rats [2] = experiment: CFA inflammatory pain model, thermal hyperalgesia (Hargreaves method); parameters: key to Thermal Hyperalgesia, change in sensitivity compared to CFA alone / Thermal Hyperalgesia, significant reduction in pain behavior vs CFA alone: NS = no statistically significant change in sensitivity compared to CFA alone; + = statistically significant change in sensitivity compared to CFA alone, p < 0.05; settings: for study days on which thermal sensitivity was reduced: PO, post-dose testing, any tested dose; for PWL (paw withdrawal latency) vs CFA+vehicle: day 7 at each dose, data not shown
# Method: as §1, §2
# Thermal hyperalgesia was measured using the Hargreaves method. A temperature ramp was applied to the right hind paw and the paw withdrawal latency (PWL) was recorded as a measure of sensitivity to thermal stimulation. […] Statistical analysis was performed using a 1-way ANOVA with Tukey post-test. A p-value below 0.05 was considered statistically significant.
# as §3, §4
# CFA-stimulated rats [3] = experiment: CFA inflammatory pain model, cytokine expression in paw skin; parameters: key to IFN-γ expression in paw skin, change compared to CFA alone / IL-4 expression in paw skin, change compared to CFA alone / TNF-α expression in paw skin, change compared to CFA alone: NS = no statistically significant change in expression compared to CFA alone; + = statistically significant change in expression compared to CFA alone, p < 0.05; settings: day 8
# Method: as §1, §3, §4
# [4] = system: pulmonary LPS-stimulated rats; experiment: Immune cell infiltration in BALF, LPS-induced acute pulmonary inflammation; settings: 0.0075 mg/kg IV, 24 h and 0.5 h before LPS; BALF 4 h post LPS
# CFA-stimulated rats [5] = experiment: CFA inflammatory pain model, thermal hyperalgesia (Hargreaves method); settings: Day 5, 1 hour pre-dosing; data not shown
# [6] = 8 mg/kg PO, Day 1, 1 h post-dose
# [7] = 8 mg/kg PO, Day 3, 1 h post-dose
# [8] = 8 mg/kg PO, Day 7, 1 h post-dose
# [9] = 16 mg/kg PO, Day 1, 1 h post-dose
# [10] = 16 mg/kg PO, Day 3, 1 h post-dose
# [11] = 16 mg/kg PO, Day 7, 1 h post-dose
# [12] = 10 mg/kg PO, Day 1, 1 h post-dose
# [13] = 10 mg/kg PO, Day 3, 1 h post-dose
# [14] = 10 mg/kg PO, Day 7, 1 h post-dose
# [15] = 20 mg/kg PO, Day 1, 1 h post-dose
# [16] = 20 mg/kg PO, Day 3, 1 h post-dose
# [17] = 20 mg/kg PO, Day 7, 1 h post-dose
smiles,measurement,setting,value
CCC(C)CN1CC2N(C(=O)c3ccc(C(F)(F)F)cc3)CCC(=O)N2[C@@H](C)C1=O (stereo partly shown) [Compound 1a],"Mechanical Allodynia, significant reduction in pain behavior vs CFA alone",CFA-stimulated rats [1]; [6],"+ (+ = statistically significant change in sensitivity compared to CFA alone, p < 0.05)"
same,"Mechanical Allodynia, significant reduction in pain behavior vs CFA alone",CFA-stimulated rats [1]; [7],"+ (+ = statistically significant change in sensitivity compared to CFA alone, p < 0.05)"
same,"Mechanical Allodynia, significant reduction in pain behavior vs CFA alone",CFA-stimulated rats [1]; [8],NS
same,"Mechanical Allodynia, significant reduction in pain behavior vs CFA alone",CFA-stimulated rats [1]; [9],"+ (+ = statistically significant change in sensitivity compared to CFA alone, p < 0.05)"
same,"Mechanical Allodynia, significant reduction in pain behavior vs CFA alone",CFA-stimulated rats [1]; [10],"+ (+ = statistically significant change in sensitivity compared to CFA alone, p < 0.05)"
same,"Mechanical Allodynia, significant reduction in pain behavior vs CFA alone",CFA-stimulated rats [1]; [11],"+ (+ = statistically significant change in sensitivity compared to CFA alone, p < 0.05)"
same,study days on which sensitivity to mechanical stimulation was reduced,CFA-stimulated rats [1],"study days 1, 3, and 7"
same,PWT (paw withdrawal threshold) vs CFA+vehicle,CFA-stimulated rats [1]; day 1,statistically significant increase
same,PWT (paw withdrawal threshold) vs CFA+vehicle,"CFA-stimulated rats [1]; day 3, 8 and 16 mg/kg",statistically significant increase
same,PWT (paw withdrawal threshold) vs CFA+vehicle,"CFA-stimulated rats [1]; day 7, 16 mg/kg",statistically significant increase
same,"Thermal Hyperalgesia, significant reduction in pain behavior vs CFA alone",CFA-stimulated rats [2]; [6],NS
same,"Thermal Hyperalgesia, significant reduction in pain behavior vs CFA alone",CFA-stimulated rats [2]; [7],NS
same,"Thermal Hyperalgesia, significant reduction in pain behavior vs CFA alone",CFA-stimulated rats [2]; [8],"+ (+ = statistically significant change in sensitivity compared to CFA alone, p < 0.05)"
same,"Thermal Hyperalgesia, significant reduction in pain behavior vs CFA alone",CFA-stimulated rats [2]; [9],"+ (+ = statistically significant change in sensitivity compared to CFA alone, p < 0.05)"
same,"Thermal Hyperalgesia, significant reduction in pain behavior vs CFA alone",CFA-stimulated rats [2]; [10],"+ (+ = statistically significant change in sensitivity compared to CFA alone, p < 0.05)"
same,"Thermal Hyperalgesia, significant reduction in pain behavior vs CFA alone",CFA-stimulated rats [2]; [11],"+ (+ = statistically significant change in sensitivity compared to CFA alone, p < 0.05)"
same,study days on which thermal sensitivity was reduced,CFA-stimulated rats [2],"study days 1, 3, and 7"
same,PWL (paw withdrawal latency) vs CFA+vehicle,CFA-stimulated rats [2],statistically significant increase
same,"IFN-γ expression in paw skin, change compared to CFA alone",CFA-stimulated rats [3]; 8 mg/kg PO,"+ (+ = statistically significant change in expression compared to CFA alone, p < 0.05)"
same,"IL-4 expression in paw skin, change compared to CFA alone",CFA-stimulated rats [3]; 8 mg/kg PO,"+ (+ = statistically significant change in expression compared to CFA alone, p < 0.05)"
same,"TNF-α expression in paw skin, change compared to CFA alone",CFA-stimulated rats [3]; 8 mg/kg PO,"+ (+ = statistically significant change in expression compared to CFA alone, p < 0.05)"
same,"IFN-γ expression in paw skin, change compared to CFA alone",CFA-stimulated rats [3]; 16 mg/kg PO,NS
same,"IL-4 expression in paw skin, change compared to CFA alone",CFA-stimulated rats [3]; 16 mg/kg PO,"+ (+ = statistically significant change in expression compared to CFA alone, p < 0.05)"
same,"TNF-α expression in paw skin, change compared to CFA alone",CFA-stimulated rats [3]; 16 mg/kg PO,"+ (+ = statistically significant change in expression compared to CFA alone, p < 0.05)"
same,"Neutrophils in BALF, reduction in cell count vs disease control",[4],++ (++ = >25% reduction in cell count vs disease control)
same,"Total Leukocytes in BALF, reduction in cell count vs disease control",[4],++ (++ = >25% reduction in cell count vs disease control)
same,PWL (paw withdrawal latency),CFA-stimulated rats [5],statistically significant increase
CCC(C)CN1CC2N(Cc3ccc(C(F)(F)F)cc3)CCC(=O)N2[C@@H](C)C1=O (stereo partly shown) [Compound 5a],"Mechanical Allodynia, significant reduction in pain behavior vs CFA alone",CFA-stimulated rats [1]; [12],"+ (+ = statistically significant change in sensitivity compared to CFA alone, p < 0.05)"
same,"Mechanical Allodynia, significant reduction in pain behavior vs CFA alone",CFA-stimulated rats [1]; [13],NS
same,"Mechanical Allodynia, significant reduction in pain behavior vs CFA alone",CFA-stimulated rats [1]; [14],NS
same,"Mechanical Allodynia, significant reduction in pain behavior vs CFA alone",CFA-stimulated rats [1]; [15],"+ (+ = statistically significant change in sensitivity compared to CFA alone, p < 0.05)"
same,"Mechanical Allodynia, significant reduction in pain behavior vs CFA alone",CFA-stimulated rats [1]; [16],NS
same,"Mechanical Allodynia, significant reduction in pain behavior vs CFA alone",CFA-stimulated rats [1]; [17],NS
same,study days on which sensitivity to mechanical stimulation was reduced,CFA-stimulated rats [1],study day 1
same,PWT (paw withdrawal threshold) vs CFA+vehicle,CFA-stimulated rats [1]; day 1,statistically significant increase
same,"Thermal Hyperalgesia, significant reduction in pain behavior vs CFA alone",CFA-stimulated rats [2]; [12],"+ (+ = statistically significant change in sensitivity compared to CFA alone, p < 0.05)"
same,"Thermal Hyperalgesia, significant reduction in pain behavior vs CFA alone",CFA-stimulated rats [2]; [13],NS
same,"Thermal Hyperalgesia, significant reduction in pain behavior vs CFA alone",CFA-stimulated rats [2]; [14],"+ (+ = statistically significant change in sensitivity compared to CFA alone, p < 0.05)"
same,"Thermal Hyperalgesia, significant reduction in pain behavior vs CFA alone",CFA-stimulated rats [2]; [15],NS
same,"Thermal Hyperalgesia, significant reduction in pain behavior vs CFA alone",CFA-stimulated rats [2]; [16],NS
same,"Thermal Hyperalgesia, significant reduction in pain behavior vs CFA alone",CFA-stimulated rats [2]; [17],"+ (+ = statistically significant change in sensitivity compared to CFA alone, p < 0.05)"
same,study days on which thermal sensitivity was reduced,CFA-stimulated rats [2],study days 1 and 7
same,PWL (paw withdrawal latency) vs CFA+vehicle,CFA-stimulated rats [2],statistically significant increase
same,"IFN-γ expression in paw skin, change compared to CFA alone",CFA-stimulated rats [3]; 10 mg/kg PO,"+ (+ = statistically significant change in expression compared to CFA alone, p < 0.05)"
same,"IL-4 expression in paw skin, change compared to CFA alone",CFA-stimulated rats [3]; 10 mg/kg PO,"+ (+ = statistically significant change in expression compared to CFA alone, p < 0.05)"
same,"TNF-α expression in paw skin, change compared to CFA alone",CFA-stimulated rats [3]; 10 mg/kg PO,"+ (+ = statistically significant change in expression compared to CFA alone, p < 0.05)"
same,"IFN-γ expression in paw skin, change compared to CFA alone",CFA-stimulated rats [3]; 20 mg/kg PO,"+ (+ = statistically significant change in expression compared to CFA alone, p < 0.05)"
same,"IL-4 expression in paw skin, change compared to CFA alone",CFA-stimulated rats [3]; 20 mg/kg PO,"+ (+ = statistically significant change in expression compared to CFA alone, p < 0.05)"
same,"TNF-α expression in paw skin, change compared to CFA alone",CFA-stimulated rats [3]; 20 mg/kg PO,"+ (+ = statistically significant change in expression compared to CFA alone, p < 0.05)"
